Test results reported in patent US10689354B2, “Aminoazole derivative” (Teijin Pharma Limited, priority 2015, dated 2020).

Legend:
[1] = molecular target: T1, androgen receptor (AR-LBD) (Rattus norvegicus, UniProt P15207); test: Evaluation of androgen receptor affinity (PolarScreen Androgen Receptor Competitor Assay Kit, Red; fluorescence polarization); conditions: 22° C. for 5 hours, relative to binding rate of 1 μM DHT, read-out: AR affinity (pEC50) (converted)
T1 construct: 5 μL of 2×AR-LBD/Fluoromone AL Red Complex contained in the kit; purchased Invitrogen
T1 sequence (P15207 651-882 limits assumed): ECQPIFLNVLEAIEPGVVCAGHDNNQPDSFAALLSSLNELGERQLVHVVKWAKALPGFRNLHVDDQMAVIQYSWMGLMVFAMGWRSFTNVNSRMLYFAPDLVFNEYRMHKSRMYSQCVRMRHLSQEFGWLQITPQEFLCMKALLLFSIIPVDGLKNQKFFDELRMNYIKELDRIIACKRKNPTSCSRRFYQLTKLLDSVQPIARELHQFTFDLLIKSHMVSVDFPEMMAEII
Outline: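 Duplicate wells; compound plus AR-LBD tracer complex incubated 22° C for 5 h, then FP measured. Effect compared with 1 μM DHT; 50%-effect concentration expressed as pEC50.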

human androgen receptor = molecular target: T2, human androgen receptor (Homo sapiens, UniProt P10275); test: Reporter assay of an androgen receptor responsive sequence (luciferase, transiently transfected HEK293 cells); format: cell-based; conditions: 24 hours incubation, relative to activity of 100 nM DHT, read-out: AR transcriptive activity (pEC50) (converted)
T2 construct: expressed in transfected cells; host or cells: HEK293
T2 sequence (P10275 1-920): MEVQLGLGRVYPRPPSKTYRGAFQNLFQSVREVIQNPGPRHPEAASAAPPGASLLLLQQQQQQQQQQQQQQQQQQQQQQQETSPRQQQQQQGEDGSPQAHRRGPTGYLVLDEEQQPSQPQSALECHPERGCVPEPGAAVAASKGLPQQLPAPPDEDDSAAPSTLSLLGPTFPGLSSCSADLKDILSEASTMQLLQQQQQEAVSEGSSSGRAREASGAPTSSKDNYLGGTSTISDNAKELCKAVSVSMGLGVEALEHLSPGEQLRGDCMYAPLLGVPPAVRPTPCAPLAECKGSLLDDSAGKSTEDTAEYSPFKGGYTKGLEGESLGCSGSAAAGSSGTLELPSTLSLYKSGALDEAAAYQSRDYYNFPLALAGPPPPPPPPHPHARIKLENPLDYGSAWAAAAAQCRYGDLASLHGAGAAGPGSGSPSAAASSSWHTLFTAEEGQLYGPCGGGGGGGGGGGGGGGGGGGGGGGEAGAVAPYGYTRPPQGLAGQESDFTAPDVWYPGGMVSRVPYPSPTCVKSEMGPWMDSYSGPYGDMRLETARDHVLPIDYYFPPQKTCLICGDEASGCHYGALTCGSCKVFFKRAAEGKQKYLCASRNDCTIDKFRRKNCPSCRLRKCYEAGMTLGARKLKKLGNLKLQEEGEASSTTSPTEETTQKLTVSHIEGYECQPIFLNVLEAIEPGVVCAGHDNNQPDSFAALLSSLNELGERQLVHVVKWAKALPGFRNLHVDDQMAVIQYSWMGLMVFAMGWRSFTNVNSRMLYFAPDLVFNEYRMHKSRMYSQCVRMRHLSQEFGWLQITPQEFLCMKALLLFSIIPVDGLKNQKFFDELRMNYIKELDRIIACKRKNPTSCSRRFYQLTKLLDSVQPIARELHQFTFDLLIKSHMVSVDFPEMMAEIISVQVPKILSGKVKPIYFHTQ
Outline: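 Agonism scored as pEC50, fitted by 4-parameter curve against the response to 100 nM DHT, from dual-luciferase readout after 24 h compound treatment. Cells were HEK293 co-transfected (3 h) with human AR expression vector, androgen-responsive firefly reporter and Renilla control, in charcoal-stripped serum.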

CS(=O)(=O)NC(=O)c1nc(N(Cc2ccccc2OC(F)F)c2ccc(C#N)cc2)sc1Cl [Example 275, 5-chloro-2-[4-cyano-N-[[2-(difluoromethoxy)phenyl]methyl]anilino]-N-methylsulfonyl-thiazole-4-carboxamide]
EC50 [1]: 63.1 nM
EC50 (human androgen receptor): 316 nM

Cc1sc(N(Cc2ncc(Cl)cc2Cl)c2ccc(C#N)cc2)nc1C(=O)NS(C)(=O)=O [Example 180, 2-[4-cyano-N-[(3,5-dichloro-2-pyridyl)methyl]anilino]-5-methyl-N-methylsulfonyl-thiazole-4-carboxamide]
EC50 [1]: 251 nM
EC50 (human androgen receptor): 501 nM

Cc1sc(N(Cc2ccc(OC(F)(F)F)cc2)c2ccc(C#N)cc2)nc1C(=O)NS(=O)(=O)CC1CCOC1 (stereo not drawn) [Example 202, 2-[4-cyano-N-[[4-(trifluoromethoxy)phenyl]methyl]anilino]-5-methyl-N-(tetrahydrofuran-3-ylmethylsulfonyl)thiazole-4-carboxamide]
EC50 [1]: 31.6 nM
EC50 (human androgen receptor): 126 nM

Cc1sc(N(Cc2ccc(F)cc2)c2ccc(C(F)(F)F)nc2)nc1C(=O)NS(C)(=O)=O [Compound 469, 2-[(4-fluorophenyl)methyl-[6-(trifluoromethyl)-3-pyridyl]amino]-5-methyl-N-methylsulfonyl-thiazole-4-carboxamide]
EC50 [1]: 158 nM
EC50 (human androgen receptor): 316 nM

Cc1oc(N(CCC2CCCC2)c2ccc(C#N)cc2)nc1C(=O)NS(C)(=O)=O [Compound 622, 2-[4-cyano-N-(2-cyclopentylethyl)anilino]-5-methyl-N-methylsulfonyl-oxazole-4-carboxamide]
EC50 [1]: 79.4 nM
EC50 (human androgen receptor): > 10000 nM

COCCCS(=O)(=O)NC(=O)c1nc(N(Cc2ccc(F)cc2)c2ccc(C#N)cc2)sc1C [Compound 499, 2-[4-cyano-N-[(4-fluorophenyl)methyl]anilino]-N-(3-methoxypropylsulfonyl)-5-methyl-thiazole-4-carboxamide]
EC50 [1]: 39.8 nM
EC50 (human androgen receptor): 158 nM

Cc1sc(N(Cc2cccc(C(F)(F)F)c2)c2ccc(C#N)cc2)nc1C(=O)NS(C)(=O)=O [Compound 24, 2-[4-cyano-N-[[3-(trifluoromethyl)phenyl]methyl]anilino]-5-methyl-N-methylsulfonyl-thiazole-4-carboxamide]
EC50 [1]: 20 nM
EC50 (human androgen receptor): 200 nM

Cc1sc(N(Cc2ccc(Cl)cc2OC(F)F)c2ccc(C#N)cc2)nc1C(=O)NS(C)(=O)=O [Example 193, 2-[N-[[4-chloro-2-(difluoromethoxy)phenyl]methyl]-4-cyano-anilino]-5-methyl-N-methylsulfonyl-thiazole-4-carboxamide]
EC50 [1]: 31.6 nM
EC50 (human androgen receptor): 501 nM

Cc1sc(N(CCc2ccc(C#N)cc2)Cc2ccc(Cl)cc2)nc1C(=O)NS(C)(=O)=O [Example 306, 2-[(4-chlorophenyl)methyl-[2-(4-cyanophenyl)ethyl]amino]-5-methyl-N-methylsulfonyl-thiazole-4-carboxamide]
EC50 [1]: 31.6 nM
EC50 (human androgen receptor): 100 nM

CS(=O)(=O)NC(=O)c1nc(N(Cc2ccccc2F)c2ccc(C#N)cc2)sc1Cl [Example 257, 5-chloro-2-[4-cyano-N-[(2-fluorophenyl)methyl]anilino]-N-methylsulfonyl-thiazole-4-carboxamide]
EC50 [1]: 100 nM
EC50 (human androgen receptor): 79.4 nM

CCC(CC)CN(c1ccc(C#N)cc1)c1nc(C(=O)NS(C)(=O)=O)c(C)s1 [Compound 65, 2-[4-cyano-N-(2-ethylbutyl)anilino]-5-methyl-N-methylsulfonyl-thiazole-4-carboxamide]
EC50 [1]: 126 nM
EC50 (human androgen receptor): > 10000 nM

Cc1sc(N(Cc2cc(F)c(F)cc2F)c2ccc(C#N)cc2)nc1C(=O)NS(C)(=O)=O [Compound 110, 2-[4-cyano-N-[(2,4,5-trifluorophenyl)methyl]anilino]-5-methyl-N-methylsulfonyl-thiazole-4-carboxamide]
EC50 [1]: 63.1 nM
EC50 (human androgen receptor): 126 nM
